This experiment relates to TMPRSS6. Kind of experiment: Inhibition of TMPRSS6 protease activity (cleavage of fluorogenic substrate Ac-RKFK-acc). The note with it: 2 nM enzyme, 15 min preincubation at room temperature, inhibition constant only in FIG. 4. The format is biochemical, human. As for the experimental part: The putative catalytic domain of TMPRSS6 minus the pro region was cloned into pFastBac1 (Invitrogen) from a human cDNA library. […] The vector also contains a C-terminal 6His tag to facilitate purification and an N-terminal honeybee melittin secretion signal. Recombinant bacmid was produced using Bac-to-Bac transposition technology (Invitrogen). Sf9 cells (Invitrogen) were then transfected with recombinant bacmid to produce rAcNPV.
Protease activity of the purified TMPRSS6 was assessed by monitoring the accumulation of the fluorophore 7-amino-4-carbamoylmethylcoumarin (acc) produced by the cleavage of the tetrapeptide substrate Ac-RKFK-acc in assay buffer (50 mM Tris-Cl pH 7.4, 200 mM NaCl, 2 mM CaCl2, 0.01% Tween 20) at 37 C. Data was collected with a Gemini EM plate reader (Molecular Devices) at λex=380 nm and λem=450 nm.
A 1 mM DMSO solution of camostat mesylate was diluted serially 1:3 in DMSO to a final concentration of 5.6 nM. The TMPRSS6 enzyme was diluted in assay buffer to 2 nM. 1 μl of each camostat dilution was added to 98 μl of the enzyme mixture in a 96 well assay plate (Dynex). The plate was incubated for 15 min at room temperature to allow equilibrium to take place between the enzyme and inhibitor. Afterward, 1 μl of a 1 mM solution of a substrate, Ac-RKFK-acc, was added to each well. […] The inhibition constant was calculated using Prism (GraphPad).

The structures appear in SMILES notation. Structures can show the parent of a compound that is named as a salt.

For the compound `CN(C)C(=O)COC(=O)Cc1ccc(OC(=O)c2ccc(NC(=N)N)cc2)cc1` [camostat mesylate], the “inhibition of TMPRSS6 protease activity” value is given as “inhibited”.

The record behind these values is US20050054027A1 (priority 2003, published 2005).
